The values that follow are results of earlier work, collected in patent publication US11819781B2, “Device for solid phase extraction and method for use thereof” (Waters Technologies Corporation, priority 2014, dated 2023).

For this data set the following is noted: analyte characteristics; for Log P: octanol:water.

`CN(C)CCC=C1c2ccccc2CCc2ccccc21` [Amitriptyline]: the pKa is listed as 9.7 and the “Log P” value is given as 4.8.
With `C[C@H]1C[C@H]2[C@@H]3CCC4=CC(=O)C=C[C@]4(C)[C@@]3(F)[C@@H](O)C[C@]2(C)[C@@]1(O)C(=O)CO` [Betamethasone], the “Log P” value was 1.1.
Consider `CNCCCC1c2ccccc2C=Cc2ccccc21` [Protriptyline], for which the “Log P” value is given as 4.4.
